Source: ChEMBL document CHEMBL5034001 (J Med Chem, 2021)
Calls of active or inactive are those of the source. The rule behind the calls is not given here.

Assays:
[1] = molecular target: Serine/threonine-protein kinase 33 (Homo sapiens) (UniProt Q9BYT3); experiment: Binding affinity to wild-type human full length STK33 (M1 to L514 residues) expressed in bacterial expression system assessed as residual binding level at 100 nM by Kinomescan method relative to control
MDA-MB-231 = experiment: Inhibition of cell migration in human MDA-MB-231 cells assessed as wound confluence ratio at 10 nM after 48 hrs by wound healing assay; assay type: functional
[2] = tested on: Epidermal growth factor receptor (Homo sapiens), P00533 [L858R,T790M]; experiment: Induction of EGFR L858R/T790M mutant degradation in human […] at 100 nM by Western blot analysis; assay type: cell-based
[3] = molecular target: T1, ALK tyrosine kinase receptor (Homo sapiens, UniProt Q9UM73); experiment: Induction of ALK degradation in human SR cells at 100 nM after 8 to 24 hrs by Western blot analysis; assay type: cell-based; conditions: time 8-24 hrs
Target sequence in this assay (Q9UM73 19-1620 limits assumed): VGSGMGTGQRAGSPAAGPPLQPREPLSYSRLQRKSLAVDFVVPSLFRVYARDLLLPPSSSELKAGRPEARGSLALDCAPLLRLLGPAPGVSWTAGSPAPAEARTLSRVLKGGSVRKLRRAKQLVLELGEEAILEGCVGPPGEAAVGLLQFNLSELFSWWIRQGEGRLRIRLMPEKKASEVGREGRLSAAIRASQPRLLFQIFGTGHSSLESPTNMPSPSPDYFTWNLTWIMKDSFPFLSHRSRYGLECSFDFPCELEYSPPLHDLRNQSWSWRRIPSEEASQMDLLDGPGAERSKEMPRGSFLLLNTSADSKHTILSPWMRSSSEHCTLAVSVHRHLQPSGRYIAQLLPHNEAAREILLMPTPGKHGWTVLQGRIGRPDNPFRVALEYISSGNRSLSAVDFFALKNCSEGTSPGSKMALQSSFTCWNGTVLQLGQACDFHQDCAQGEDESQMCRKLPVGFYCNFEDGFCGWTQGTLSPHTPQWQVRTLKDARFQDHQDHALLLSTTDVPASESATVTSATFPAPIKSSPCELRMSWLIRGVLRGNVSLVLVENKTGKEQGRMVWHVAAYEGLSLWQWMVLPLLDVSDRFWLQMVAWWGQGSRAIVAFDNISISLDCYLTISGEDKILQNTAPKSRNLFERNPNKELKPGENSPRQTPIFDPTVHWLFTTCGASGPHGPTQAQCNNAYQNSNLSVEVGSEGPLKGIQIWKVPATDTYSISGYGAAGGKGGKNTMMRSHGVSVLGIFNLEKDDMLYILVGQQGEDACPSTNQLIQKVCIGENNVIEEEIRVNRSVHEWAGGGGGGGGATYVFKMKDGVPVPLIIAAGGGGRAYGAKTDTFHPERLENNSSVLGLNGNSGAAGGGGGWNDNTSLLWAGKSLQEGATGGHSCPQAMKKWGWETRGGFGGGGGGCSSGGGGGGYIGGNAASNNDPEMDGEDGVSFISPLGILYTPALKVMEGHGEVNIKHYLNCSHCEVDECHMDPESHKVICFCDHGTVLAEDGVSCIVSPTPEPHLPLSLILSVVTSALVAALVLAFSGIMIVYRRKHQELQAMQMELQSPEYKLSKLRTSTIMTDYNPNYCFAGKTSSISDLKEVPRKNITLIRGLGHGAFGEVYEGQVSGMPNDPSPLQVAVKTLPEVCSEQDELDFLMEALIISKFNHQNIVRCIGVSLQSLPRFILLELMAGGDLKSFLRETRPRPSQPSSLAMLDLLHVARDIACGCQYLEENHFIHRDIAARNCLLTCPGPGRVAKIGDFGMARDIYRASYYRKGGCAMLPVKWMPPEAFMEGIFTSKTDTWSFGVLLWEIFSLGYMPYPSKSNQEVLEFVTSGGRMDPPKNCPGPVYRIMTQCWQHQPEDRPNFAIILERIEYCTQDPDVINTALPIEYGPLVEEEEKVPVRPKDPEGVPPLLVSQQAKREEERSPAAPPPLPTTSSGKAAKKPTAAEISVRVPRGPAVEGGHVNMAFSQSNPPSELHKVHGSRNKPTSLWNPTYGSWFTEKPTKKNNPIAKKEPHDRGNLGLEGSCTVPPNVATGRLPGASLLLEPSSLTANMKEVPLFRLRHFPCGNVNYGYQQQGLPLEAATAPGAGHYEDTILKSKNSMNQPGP

[4] = tested on: ALK tyrosine kinase receptor (Homo sapiens), Q9UM73 [L1196M]; experiment: Binding affinity to wild-type human partial length ALK L1196M mutant (I1088 to E1409 residues) expressed in mammalian expression system assessed as residual binding level at 100 nM by Kinomescan method relative to control
[5] = Half life in […] at 10 mg/kg, po or 2 mg/kg, iv measured upto 24 hrs; assay type: ADME, organism-based; conditions: in vivo
[6] = molecular target: Dual specificity protein kinase CLK1 (Homo sapiens) (UniProt P49759); experiment: Binding affinity to wild-type human full length CLK1 (M1 to I484 residues) expressed in bacterial expression system assessed as residual binding level at 100 nM by Kinomescan method relative to control
[7] = molecular target: Tyrosine-protein kinase Fer (Homo sapiens) (UniProt P16591); experiment: Binding affinity to wild-type human partial length FER (S542 to T822 residues) expressed in bacterial expression system assessed as residual binding level at 100 nM by Kinomescan method relative to control
[8] = Oral bioavailability in […] at 10 mg/kg measured upto 24 hrs; assay type: ADME, organism-based; conditions: in vivo
[9] = tested on: Receptor-type tyrosine-protein kinase FLT3 (Homo sapiens), P36888 [UNDEFINED MUTATION]; experiment: Binding affinity to human partial length FLT3 ITD/F691L double mutant expressed in bacterial expression system assessed as residual binding level at 100 nM by Kinomescan method relative to control
[10] = molecular target: T1, ALK tyrosine kinase receptor; experiment: Binding affinity to ALK (unknown origin)
[11] = molecular target: Non-receptor tyrosine-protein kinase TNK1 (Homo sapiens) (UniProt Q13470); experiment: Binding affinity to wild-type human full length TNK1 (M1 to P661 residues) expressed in bacterial expression system assessed as residual binding level at 100 nM by Kinomescan method relative to control
Non-receptor tyrosine-protein kinase TNK1 (Homo sapiens), sequence (Q13470 whole entry, the tested form may be a part): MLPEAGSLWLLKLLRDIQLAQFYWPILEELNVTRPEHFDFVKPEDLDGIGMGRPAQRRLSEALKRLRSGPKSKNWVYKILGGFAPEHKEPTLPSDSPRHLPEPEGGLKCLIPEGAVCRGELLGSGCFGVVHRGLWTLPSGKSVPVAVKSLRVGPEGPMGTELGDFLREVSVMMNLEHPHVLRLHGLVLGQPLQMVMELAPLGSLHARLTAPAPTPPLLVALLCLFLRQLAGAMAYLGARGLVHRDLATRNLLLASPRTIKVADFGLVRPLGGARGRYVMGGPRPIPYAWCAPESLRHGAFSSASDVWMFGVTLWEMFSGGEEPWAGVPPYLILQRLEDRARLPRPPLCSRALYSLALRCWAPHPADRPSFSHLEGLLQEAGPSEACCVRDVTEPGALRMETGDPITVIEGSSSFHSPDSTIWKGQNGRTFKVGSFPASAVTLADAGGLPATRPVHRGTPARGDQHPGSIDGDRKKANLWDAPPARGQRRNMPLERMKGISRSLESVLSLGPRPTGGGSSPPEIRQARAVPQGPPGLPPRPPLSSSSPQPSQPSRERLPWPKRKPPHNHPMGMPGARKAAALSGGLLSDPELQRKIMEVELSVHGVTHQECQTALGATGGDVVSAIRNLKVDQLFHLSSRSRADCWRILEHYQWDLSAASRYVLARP

[12] = molecular target: Focal adhesion kinase 1 (Homo sapiens) (UniProt Q05397); experiment: Induction of FAK degradation in human MDA-MB-231 cells at 10 nM after 1 to 2 hrs by Western blot analysis; assay type: cell-based; conditions: time 1-2 hrs
Focal adhesion kinase 1 (Homo sapiens), sequence (Q05397 2-1052 limits assumed): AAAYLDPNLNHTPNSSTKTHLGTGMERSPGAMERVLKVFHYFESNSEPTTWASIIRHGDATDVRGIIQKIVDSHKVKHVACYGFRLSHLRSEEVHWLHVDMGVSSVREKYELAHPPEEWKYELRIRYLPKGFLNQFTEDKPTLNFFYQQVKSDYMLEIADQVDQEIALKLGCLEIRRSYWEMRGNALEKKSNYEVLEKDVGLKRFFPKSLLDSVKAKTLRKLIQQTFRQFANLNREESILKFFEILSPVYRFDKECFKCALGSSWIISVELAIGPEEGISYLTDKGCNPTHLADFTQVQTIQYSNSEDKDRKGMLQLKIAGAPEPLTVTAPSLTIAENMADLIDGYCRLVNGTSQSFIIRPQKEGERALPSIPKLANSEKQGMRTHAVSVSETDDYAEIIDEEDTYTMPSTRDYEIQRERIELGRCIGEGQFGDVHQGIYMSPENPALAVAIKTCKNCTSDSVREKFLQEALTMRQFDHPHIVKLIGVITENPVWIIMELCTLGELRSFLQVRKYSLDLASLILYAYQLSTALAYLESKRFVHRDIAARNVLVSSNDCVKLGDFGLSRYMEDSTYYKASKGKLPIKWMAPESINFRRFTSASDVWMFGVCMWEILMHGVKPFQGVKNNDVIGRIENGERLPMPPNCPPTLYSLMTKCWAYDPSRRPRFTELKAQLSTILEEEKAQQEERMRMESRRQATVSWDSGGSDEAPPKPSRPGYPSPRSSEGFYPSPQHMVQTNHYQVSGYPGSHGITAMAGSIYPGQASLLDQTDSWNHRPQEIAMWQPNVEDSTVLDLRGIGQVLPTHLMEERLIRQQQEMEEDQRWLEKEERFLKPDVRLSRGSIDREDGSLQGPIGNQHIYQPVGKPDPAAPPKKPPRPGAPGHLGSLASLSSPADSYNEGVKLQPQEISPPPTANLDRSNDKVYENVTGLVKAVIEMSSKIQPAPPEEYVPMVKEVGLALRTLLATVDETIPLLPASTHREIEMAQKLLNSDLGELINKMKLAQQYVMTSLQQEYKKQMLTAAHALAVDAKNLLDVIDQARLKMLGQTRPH

[13] = Metabolic stability in human liver microsomes assessed as intrinsic clearance preincubated for 10 mins followed by NADPH regenerating system addition and measured after 10 mins by LC-MS/MS analysis; assay type: ADME, Microsome; conditions: time 20 min, read-out: CLH
[14] = tested on: Epidermal growth factor receptor (Homo sapiens), P00533 [L858R,T790M]; experiment: Binding affinity to human partial length EGFR L858R/T790M double mutant (R669 to V1011 residues) expressed in mammalian expression system assessed as residual binding level at 100 nM by Kinomescan method relative to control
[15] = molecular target: Leucine-rich repeat serine/threonine-protein kinase 2 (Homo sapiens) (UniProt Q5S007); experiment: Binding affinity to wild-type human partial length LRRK2 (H970 to E2527 residues) expressed in mammalian expression system assessed as residual binding level at 100 nM by Kinomescan method relative to control
EML4-ALK (Homo sapiens) = EML4-ALK (Homo sapiens) (UniProt Q9UM73+Q9HC35); experiment: Induction of EML4-ALK degradation in human […] at 0.1 to 50 nM by Western blot analysis; assay type: cell-based; conditions: dose 0.1-50 nM
[16] = tested on: Receptor-type tyrosine-protein kinase FLT3 (Homo sapiens), P36888 [UNDEFINED MUTATION]; experiment: Binding affinity to human partial length FLT3 ITD mutant expressed in bacterial expression system assessed as residual binding level at 100 nM by Kinomescan method relative to control
[17] = tested on: Receptor-type tyrosine-protein kinase FLT3 (Homo sapiens), P36888 [N841I]; experiment: Binding affinity to human partial length FLT3 N841I mutant (V592 to Y969 residues) expressed in bacterial expression system assessed as residual binding level at 100 nM by Kinomescan method relative to control
[18] = molecular target: Serine/threonine-protein kinase SBK1 (Homo sapiens) (UniProt Q52WX2); experiment: Binding affinity to wild-type human partial length SBK1 (P23 to P348 residues) expressed in mammalian expression system assessed as residual binding level at 100 nM by Kinomescan method relative to control
[19] = molecular target: T1, ALK tyrosine kinase receptor; experiment: Binding affinity to wild-type human partial length ALK (I1088 to E1409 residues) expressed in mammalian expression system assessed as residual binding level at 100 nM by Kinomescan method relative to control
Target sequence in this assay (Q9UM73 19-1620 limits assumed): as the sequence (Q9UM73 19-1620 limits assumed) above

[20] = molecular target: T1, ALK tyrosine kinase receptor; experiment: Induction of ALK degradation in human SR cells at 10 uM after 16 hrs by Western blot analysis; assay type: cell-based
Target sequence in this assay (Q9UM73 19-1620 limits assumed): as above

Calu-1 = experiment: Down regulation of RSK1 in human Calu-1 cells at 1 to 1000 nM after 16 hrs by Western blot analysis; assay type: functional, cell-based; conditions: dose 1-1000 nM
[21] = tested on: Receptor-type tyrosine-protein kinase FLT3 (Homo sapiens), P36888 [K663Q]; experiment: Binding affinity to human partial length FLT3 K663Q mutant (V592 to Y969 residues) expressed in bacterial expression system assessed as residual binding level at 100 nM by Kinomescan method relative to control
NCI-H2228 = experiment: Down regulation of RSK1 in human NCI-H2228 cells at 1 to 1000 nM after 16 hrs by Western blot analysis; assay type: functional, cell-based; conditions: dose 1-1000 nM
NCI-H1975 = experiment: Antiproliferative activity against human H1975 cells overexpressing EGFR L858R/T790M mutant assessed as cell growth inhibition after 72 hrs; assay type: functional, cell-based; conditions: NCI-H1975, 72 h
[22] = molecular target: Protein-tyrosine kinase 2-beta (Homo sapiens) (UniProt Q14289); experiment: Induction of PYK2 degradation in human MDA-MB-231 cells at 10 nM treated for 16 hrs followed by compound washout and measured after 48 hrs by Western blot analysis; assay type: cell-based
Protein-tyrosine kinase 2-beta (Homo sapiens), sequence (Q14289 whole entry, looked up): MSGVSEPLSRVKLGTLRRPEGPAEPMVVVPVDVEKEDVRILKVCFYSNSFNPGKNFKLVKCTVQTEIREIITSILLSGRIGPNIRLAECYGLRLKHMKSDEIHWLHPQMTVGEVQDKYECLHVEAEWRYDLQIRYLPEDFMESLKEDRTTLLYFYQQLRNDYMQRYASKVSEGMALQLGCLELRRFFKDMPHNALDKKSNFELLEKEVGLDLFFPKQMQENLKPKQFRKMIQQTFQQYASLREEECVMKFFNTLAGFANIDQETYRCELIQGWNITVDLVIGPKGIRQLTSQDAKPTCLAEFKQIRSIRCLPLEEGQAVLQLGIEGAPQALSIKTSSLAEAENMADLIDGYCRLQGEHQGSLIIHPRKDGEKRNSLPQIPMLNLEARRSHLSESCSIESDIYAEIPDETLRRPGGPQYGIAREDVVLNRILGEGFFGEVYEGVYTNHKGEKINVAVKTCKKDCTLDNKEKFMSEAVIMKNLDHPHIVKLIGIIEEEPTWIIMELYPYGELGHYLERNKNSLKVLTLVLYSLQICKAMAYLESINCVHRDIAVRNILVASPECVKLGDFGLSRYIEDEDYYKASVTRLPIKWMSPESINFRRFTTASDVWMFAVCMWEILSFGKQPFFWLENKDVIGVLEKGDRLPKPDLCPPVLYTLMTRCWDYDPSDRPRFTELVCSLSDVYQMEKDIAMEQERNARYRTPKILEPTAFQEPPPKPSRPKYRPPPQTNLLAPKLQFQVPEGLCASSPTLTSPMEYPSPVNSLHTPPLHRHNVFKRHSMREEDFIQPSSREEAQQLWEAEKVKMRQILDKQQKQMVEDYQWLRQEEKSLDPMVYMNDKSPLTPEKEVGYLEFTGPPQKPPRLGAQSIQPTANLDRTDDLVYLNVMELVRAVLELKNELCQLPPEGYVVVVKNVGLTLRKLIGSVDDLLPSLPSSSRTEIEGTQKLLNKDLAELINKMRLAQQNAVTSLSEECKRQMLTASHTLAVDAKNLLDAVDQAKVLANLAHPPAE

HEK-293T = experiment: Antiproliferative activity against human 293T cells overexpressing ALK G1202R mutant assessed as cell growth inhibition after 72 hrs; assay type: functional, cell-based
[23] = molecular target: Protein-tyrosine kinase 2-beta (Homo sapiens) (UniProt Q14289); experiment: Induction of PYK2 degradation in human MDA-MB-231 cells at 10 nM after 1 to 2 hrs by Western blot analysis; assay type: cell-based; conditions: time 1-2 hrs
SR = experiment: Down regulation of PYK2 in human SR cells at 0.1 to 1000 nM after 16 hrs by Western blot analysis; assay type: functional, cell-based; conditions: dose 0.1-1000 nM
[24] = molecular target: Focal adhesion kinase 1 (Homo sapiens) (UniProt Q05397); experiment: Induction of FAK degradation in human A549 cells at 1 nM after 16 hrs by Western blot analysis; assay type: cell-based
[25] = molecular target: Serine/threonine-protein kinase ULK1 (Homo sapiens) (UniProt O75385); experiment: Binding affinity to wild-type human partial length ULK1 (M1 to T309 residues) expressed in mammalian expression system assessed as residual binding level at 100 nM by Kinomescan method relative to control

Serine/threonine-protein kinase 33 (Homo sapiens), sequence (Q9BYT3 whole entry, looked up, the tested form may be a part): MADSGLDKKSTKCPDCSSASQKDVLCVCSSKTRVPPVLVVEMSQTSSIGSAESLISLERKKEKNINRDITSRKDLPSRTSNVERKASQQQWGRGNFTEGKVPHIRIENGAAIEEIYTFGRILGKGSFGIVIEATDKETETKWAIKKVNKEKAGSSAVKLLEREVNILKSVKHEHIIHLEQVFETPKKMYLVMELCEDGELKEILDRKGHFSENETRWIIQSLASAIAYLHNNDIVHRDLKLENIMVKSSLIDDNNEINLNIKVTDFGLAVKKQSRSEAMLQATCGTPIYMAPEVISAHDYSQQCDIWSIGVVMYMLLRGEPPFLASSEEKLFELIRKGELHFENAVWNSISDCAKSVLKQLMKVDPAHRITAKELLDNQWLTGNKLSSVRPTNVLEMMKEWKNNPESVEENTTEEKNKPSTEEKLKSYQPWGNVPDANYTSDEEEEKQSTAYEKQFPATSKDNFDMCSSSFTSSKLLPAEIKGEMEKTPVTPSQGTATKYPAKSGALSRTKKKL

COc1cc(N2CCC(N3CCN(C(=O)CNc4cccc5c4C(=O)N(C4CCC(=O)NC4=O)C5=O)CC3)CC2)ccc1Nc1ncc(Cl)c(Nc2ccccc2P(C)(C)=O)n1 (configuration not stated)
Activity [1]: 2.3%
inhibition at 0.01 µM (MDA-MB-231): 48%
Activity [2]: Active
Activity [3]: Active
Activity [4]: 6.5%
half-life [5]: 7.1 h
Activity [6]: 3.8%
Activity [7]: 4.1%
bioavailability [8]: 18.4%
Activity [9]: 0%
IC50 [10]: 2.5 nM
Activity [11]: 3.8%
Activity [12]: Active
CLint scaled [13]: 22.6 mL/min/kg
Activity [14]: 3.5%
Activity [15]: 0%
Activity (EML4-ALK (Homo sapiens)): Active
Activity [16]: 3%
Activity [17]: 4%
Activity [18]: 3.9%
Activity [19]: 5.3%
Activity [20]: Active
Activity (Calu-1): Active
Activity [21]: 4.3%
Activity (NCI-H2228): Active
IC50 (NCI-H1975): 42 nM
Activity [22]: inactive
IC50 (HEK-293T): 21 nM
Activity [23]: Active
Activity (SR): Active
Activity [24]: Active
Activity [25]: 1.6%
